# According to patent US20100179109A1, “RENIN INHIBITORS” (priority 2007, published 2010):
# Target: T1, trypsin-activated recombinant human renin (Homo sapiens, UniProt P00797)
# T1 sequence (P00797 67-406): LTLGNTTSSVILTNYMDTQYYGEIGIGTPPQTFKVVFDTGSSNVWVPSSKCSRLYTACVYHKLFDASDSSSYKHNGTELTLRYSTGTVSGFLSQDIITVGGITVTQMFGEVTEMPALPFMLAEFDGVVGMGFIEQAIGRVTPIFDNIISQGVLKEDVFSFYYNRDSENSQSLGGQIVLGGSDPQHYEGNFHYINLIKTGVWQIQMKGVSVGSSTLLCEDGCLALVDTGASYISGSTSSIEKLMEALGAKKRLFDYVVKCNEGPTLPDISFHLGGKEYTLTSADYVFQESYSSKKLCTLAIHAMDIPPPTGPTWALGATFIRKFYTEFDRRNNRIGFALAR
# Test: In vitro renin assay, fluorescently labeled peptide, LJL Acquest, results as pIC50 (Example 22)
# Type: biochemical
# Settings: found not to demonstrate inhibition at concentrations below the stated value
# Experimental: The potency of renin inhibitors was measured using an in vitro renin assay. In this assay, renin-catalyzed proteolysis of a fluorescently labeled peptide converts the peptide from a weakly fluorescent to a strongly fluorescent molecule. The following test protocol was used. Substrate solution (5 μl; 2 μM Arg-Glu-Lys(5-Fam)-Ile-His-Pro-Phe-His-Leu-Val-Ile-His-Thr-Lys(5,6 Tamra)-Arg-CONH2 in 50 mM Hepes, 125 mM NaCl, 0.1% CHAPS, pH 7.4) then trypsin-activated recombinant human renin (Scott, Martin J. et. al. Protein Expression and Purification 2007, 52(1), 104-116; 5 μL; 600 pM renin in 50 mM Hepes, 125 mM NaCl, 0.1% CHAPS, pH 7.4) were added sequentially to a black Greiner low volume 384-well plate (cat.#784076) pre-stamped with a 100 nl DMSO solution of compound at the desired concentration. The assay plates were incubated at room temperature for 2 hours with a cover plate then quenched by the addition of a stop solution (2 μL; 5 μM of Bachem C-3195 in 50 mM Hepes, 125 mM NaCl, 0.1% CHAPS, pH 7.4, 10% DMSO). The assay plates were read on an LJL Acquest using a 485 nm excitation filter, a 530 nm emission filter, and a 505 nm dichroic filter. Compounds were initially prepared in neat DMSO at a concentration of 10 mM. For inhibition curves, compounds were diluted using a three fold serial dilution and tested at 11 concentrations (e.g. 50 μM-0.8 nM or 25 μM-0.42 nM or 2.5 μM to […]). Curves were analyzed using ActivityBase and XLfit, and results were expressed as pIC50 values.
row,Structure (SMILES),IC50
1,CNCc1ccc(C(=O)N2CCOC(C(O)(CCCCOC)c3cccc(Cl)c3-c3nc(C(C)C)c4ccccc4n3)C2)cc1 (centres unmarked) [1-{3-chloro-2-[4-(1-methylethyl)-2-quinazolinyl]phenyl}-1-[4-({4-[(methylamino)methyl]phenyl}carbonyl)-2-morpholinyl]-5-(methyloxy)-1-pentanol],≥ 50 µM
2,CNCc1ccc(C(=O)N2CCCC(C(O)(CCCCOC)c3cccc(Cl)c3Cc3cccc(C)c3)C2)cc1 (centres unmarked) [1-{3-chloro-2-[(3-methylphenyl)methyl]phenyl}-1-[1-({4-[(methylamino)methyl]phenyl}carbonyl)-3-piperidinyl]-5-(methyloxy)-1-pentanol],≥ 50 µM
3,COCCCCC(O)(c1cccc(Cl)c1Cc1ccccc1C)C1CCCN(C(=O)c2ccc(CN)cc2)C1 (centres unmarked) [1-(1-{[4-(aminomethyl)phenyl]carbonyl}-3-piperidinyl)-1-{3-chloro-2-[(2-methylphenyl)methyl]phenyl}-5-(methyloxy)-1-pentanol],≥ 50 µM
4,"COCCCCC(O)(c1ccccc1Oc1c(C)cccc1C)C1CCCN(C(=O)c2ccc(CN)cc2)C1 (centres unmarked) [1-(1-{[4-(aminomethyl)phenyl]carbonyl}-3-piperidinyl)-1-{2-[(2,6-dimethylphenyl)oxy]phenyl}-5-(methyloxy)-1-pentanol]",≥ 50 µM

# Second part, the compound after the results:
row,IC50,Structure (SMILES)
1,≥ 50 µM,CCc1cccc(-c2c(Cl)cccc2C(OCCNC(=O)OC)C2CN(C(=O)c3ccc(CNC)cc3)CCO2)c1 (centres unmarked) [methyl [2-({(6-chloro-3′-ethyl-2-biphenylyl)[4-({4-[(methylamino)methyl]phenyl}carbonyl)-2-morpholinyl]methyl}oxy)ethyl]carbamate]
2,≥ 50 µM,CNCc1ccc(C(=O)N2CCOC(C(O)(CCCNC(=O)OC)c3cccc(F)c3-c3cc(C)cc(OC)c3)C2)cc1 (centres unmarked)
3,≥ 50 µM,CNCc1ccc(C(=O)N2CCCC(C(O)(CCCNC(=O)OC)c3cccc(F)c3-c3cccs3)C2)cc1 (centres unmarked) [methyl {4-[3-fluoro-2-(2-thienyl)phenyl]-4-hydroxy-4-[1-({4-[(methylamino)methyl]phenyl}carbonyl)-3-piperidinyl]butyl}carbamate]
4,≥ 50 µM,COC(=O)NCCCC(O)(c1cccc(F)c1-c1cc(C)cc(OC)c1)C1CN(C(=O)C2CCC(N)C2)CCO1 (centres unmarked) [methyl {4-(4-{[3-aminocyclopentyl]carbonyl}-2-morpholinyl)-4-[6-fluoro-3′-methyl-5′-(methyloxy)-2-biphenylyl]-4-hydroxybutyl}carbamate]
